Test results from PubChem BioAssay AID330 (DTP/NCI, 2004).
Toxic doses and inconclusive results are not listed. The calls were made as follows: active = survival T/C of 150% or more; inactive = T/C below 125% in these data.

Tested on: P388 leukemia ip, CD2F1 mice, survival T/C
Experiment: NCI In Vivo Anticancer Drug Screen. Data for tumor model P388 Leukemia (intraperitoneal) in CD2F1 (CDF1) mice
Conditions: endpoint: median survival time, higher = longer survival
How it was run: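 Mice carrying the transplanted tumor received test compound or vehicle. Survival was recorded in each group, and the value is the treated-group measurement divided by that of the vehicle-treated control group.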

[1] = dose: 25.0 mg/kg/injection, schedule: Q01DX009 (ip), vehicle: saline
[2] = dose: 50.0 mg/kg/injection, schedule: Q01DX009 (ip), vehicle: saline
[3] = dose: 100.0 mg/kg/injection, schedule: Q01DX009 (ip), vehicle: saline
[4] = dose: 200.0 mg/kg/injection, schedule: Q01DX009 (ip), vehicle: saline

Measured: T/C

O=C1/C(=C(\Cl)c2ccccc2)Cc2ccccc21
inactive: dose: 75.0 mg/kg/injection, schedule: Q01DX001 (ip), vehicle: saline sonified 100 % of control | dose: 150.0 mg/kg/injection, schedule: Q01DX001 (ip), vehicle: saline sonified 95 % of control | dose: 300.0 mg/kg/injection, schedule: Q01DX001 (ip), vehicle: saline sonified 118 % of control

c1cc[c]([Pb]([S]c2nc3ccccc3[nH]2)([c]2ccccc2)[c]2ccccc2)cc1
inactive: dose: 0.37 mg/kg/injection, schedule: Q01DX009 (ip), vehicle: Klucel (hydroxypropylcellulose) (HPC) 102 % of control | dose: 0.75 mg/kg/injection, schedule: Q01DX009 (ip), vehicle: Klucel (hydroxypropylcellulose) (HPC) 121 % of control | dose: 1.5 mg/kg/injection, schedule: Q01DX009 (ip), vehicle: Klucel (hydroxypropylcellulose) (HPC) 102 % of control | dose: 3.0 mg/kg/injection, schedule: Q01DX009 (ip), vehicle: Klucel (hydroxypropylcellulose) (HPC) 100 % of control

N#Cc1c(Cl)nc2sccn12
inactive: dose: 100.0 mg/kg/injection, schedule: Q01DX001 (ip), vehicle: Klucel (hydroxypropylcellulose) (HPC) 95 % of control | dose: 200.0 mg/kg/injection, schedule: Q01DX001 (ip), vehicle: Klucel (hydroxypropylcellulose) (HPC) 103 % of control

COc1ccc2c(=O)c(Cc3c[nH]c4ccccc34)coc2c1
inactive: dose: 7.5 mg/kg/injection, schedule: Q01DX005 (ip), vehicle: saline with Tween-80 100 % of control | dose: 15.0 mg/kg/injection, schedule: Q01DX005 (ip), vehicle: saline with Tween-80 93 % of control | dose: 30.0 mg/kg/injection, schedule: Q01DX005 (ip), vehicle: saline with Tween-80 86 % of control

O=C(O)CCc1cccc(O)c1
inactive: [1] 110 % of control | [2] 101 % of control | [3] 103 % of control | [4] 95 % of control

COC(=O)c1ccc(C(=O)OC)c2nn3c(N)nnc3nc12
inactive: dose: 60.0 mg/kg/injection, schedule: Q01DX005 (ip), vehicle: saline 110 % of control | dose: 120.0 mg/kg/injection, schedule: Q01DX005 (ip), vehicle: saline 100 % of control | dose: 240.0 mg/kg/injection, schedule: Q01DX005 (ip), vehicle: saline 100 % of control

Nc1nnc2cc(F)ccc2n1
inactive: dose: 50.0 mg/kg/injection, schedule: Q01DX009 (ip), vehicle: Klucel (hydroxypropylcellulose) (HPC) 104 % of control | [2] 123 % of control | dose: 100.0 mg/kg/injection, schedule: Q01DX009 (ip), vehicle: Klucel (hydroxypropylcellulose) (HPC) 108 % of control | [3] 108 % of control | dose: 200.0 mg/kg/injection, schedule: Q01DX009 (ip), vehicle: Klucel (hydroxypropylcellulose) (HPC) 98 % of control | [4] 113 % of control

CCN(CC)Cc1cc(Nc2ccnc3cc(N(C)C)ccc23)ccc1O
inactive: dose: 6.25 mg/kg/injection, schedule: Q01DX009 (ip), vehicle: saline 103 % of control | dose: 12.5 mg/kg/injection, schedule: Q01DX009 (ip), vehicle: saline 115 % of control | [1] 115 % of control

CC(C)NC(=O)OCCS(=O)c1c(Cl)c(Cl)nn1C (centres undefined)
inactive: dose: 60.0 mg/kg/injection, schedule: Q01DX005 (ip), vehicle: saline with Tween-80 117 % of control | dose: 120.0 mg/kg/injection, schedule: Q01DX005 (ip), vehicle: saline with Tween-80 109 % of control

CC(Cl)CN(Cc1cc(O)c(CN(CC(C)Cl)CC(C)Cl)cc1O)CC(C)Cl (centres undefined)
inactive: dose: 200.0 mg/kg/injection, schedule: Q04DX003 (ip), vehicle: Klucel (hydroxypropylcellulose) (HPC) 118 % of control

COC(=O)CCCCc1ccc(CCCCC(=O)OC)c2ccccc12
inactive: dose: 50.0 mg/kg/injection, schedule: Q01DX009 (ip), vehicle: other 103 % of control | dose: 100.0 mg/kg/injection, schedule: Q01DX009 (ip), vehicle: other 100 % of control | dose: 200.0 mg/kg/injection, schedule: Q01DX009 (ip), vehicle: other 97 % of control

C=C1CCC2C(OC(=O)C2(O)COC(C)=O)C2C(=C)C(OC(C)=O)CC12 (centres undefined)
inactive: dose: 9.38 mg/kg/injection, schedule: Q01DX005 (ip), vehicle: Klucel (hydroxypropylcellulose) (HPC) 106 % of control | dose: 18.75 mg/kg/injection, schedule: Q01DX005 (ip), vehicle: Klucel (hydroxypropylcellulose) (HPC) 100 % of control | dose: 37.5 mg/kg/injection, schedule: Q01DX005 (ip), vehicle: Klucel (hydroxypropylcellulose) (HPC) 98 % of control | dose: 75.0 mg/kg/injection, schedule: Q01DX005 (ip), vehicle: Klucel (hydroxypropylcellulose) (HPC) 100 % of control | dose: 150.0 mg/kg/injection, schedule: Q01DX005 (ip), vehicle: Klucel (hydroxypropylcellulose) (HPC) 99 % of control
